Assay results: ChEMBL document CHEMBL3272295, “Drugs derived from cannabinoids. 5. delta6a,10a-Tetrahydrocannabinol and heterocyclic analogs containing aromatic side chains” (J Med Chem, 1976)
The source made the active and inactive calls. No cut-off for these calls is given here.

Columns and labels:
[1] = system: Rattus norvegicus; assay: Antihypertensive activity in spontaneously hypertensive rat model assessed as reduction in blood pressure at 3 mg/kg, po after 24 hrs; assay type: functional; parameters: scale not given: the % may be the effect or the level left
[2] = system: Mus musculus; assay: Analgesic activity in mouse assessed as inhibition of acetic acid-induced writhing at 10 mg/kg, po administered 30 mins prior to acetic acid challenge measured after 5 mins for 20 mins; assay type: functional
[3] = system: Rattus norvegicus; assay: Antianxiety activity in Long-Evans rat assessed as reduction in motor activity at 5 mg/kg, po after 2 hrs relative to vehicle-treated control; assay type: functional; parameters: scale not given: the % may be the effect or the level left
[4] = Acute toxicity in po dosed mouse; assay type: organism-based; conditions: in vivo
[5] = system: Rattus norvegicus; assay: Antihypertensive activity in spontaneously hypertensive rat model assessed as reduction in blood pressure at 1 mg/kg, po after 24 hrs; assay type: functional; parameters: scale not given: the % may be the effect or the level left
[6] = system: Mus musculus; assay: Antianxiety activity in albino BALB/cJ mouse assessed as reduction in footshock-induced fighting behavior at 10 mg/kg, po after 30 to 90 mins; assay type: functional; parameters: scale not given: the % may be the effect or the level left
[7] = system: Rattus norvegicus; assay: Antihypertensive activity in spontaneously hypertensive rat model assessed as reduction in blood pressure at 1 mg/kg, po after 3 hrs; assay type: functional; parameters: scale not given: the % may be the effect or the level left
[8] = system: Rattus norvegicus; assay: Antipsychotic activity in rat assessed as reduction of methamphetamine-induced hyperactivity at 5 mg/kg, po administered prior to methamphetamine challenge relative to vehicle-treated control; assay type: functional; parameters: scale not given: the % may be the effect or the level left
[9] = system: Rattus norvegicus; assay: Antipsychotic activity in rat assessed as reduction of methamphetamine-induced hyperactivity at 20 mg/kg, po administered prior to methamphetamine challenge relative to vehicle-treated control; assay type: functional; parameters: scale not given: the % may be the effect or the level left
[10] = species on record: Rattus norvegicus; assay: animal or person; assay type: functional; conditions: Charles River, route oral
Description: Antidiarrheal activity in Charles River rat assessed as inhibition of castor oil-induced diarrhea by measuring protected animals at 0.5 mg/kg, po administered 1 hr prior to castor oil challenge measured after 1 hr relative to vehicle-treated control

[11] = system: Rattus norvegicus; assay: Antihypertensive activity in spontaneously hypertensive rat model assessed as reduction in blood pressure at 3 mg/kg, po after 3 hrs; assay type: functional; parameters: scale not given: the % may be the effect or the level left
[12] = system: Rattus norvegicus; assay: Antipsychotic activity in rat assessed as reduction of methamphetamine-induced hyperactivity at 2 mg/kg, po administered prior to methamphetamine challenge relative to vehicle-treated control; assay type: functional; parameters: scale not given: the % may be the effect or the level left
[13] = system: Mus musculus; assay: Analgesic activity in po dosed mouse assessed as inhibition of acetic acid-induced writhing administered 30 mins prior to acetic acid challenge measured after 5 mins for 20 mins; assay type: functional
[14] = system: Felis catus; assay: Hypnotic activity in cat assessed as increase in total sleep time at 0.5 mg/kg administered orally through diet measured for 12 hrs by EEG analysis; assay type: functional; conditions: route oral
[15] = system: Felis catus; assay: Hypnotic activity in cat assessed as increase in non-REM sleep time at 0.5 mg/kg administered orally through diet measured for 12 hrs by EEG analysis; assay type: functional; conditions: route oral
[16] = system: Rattus norvegicus; assay: Analgesic activity in po dosed Sprague-Dawley rat after 15 to 90 mins by tail flick test; assay type: functional
[17] = system: Mus musculus; assay: Anticonvulsant activity in po dosed mouse assessed as dose required to protect 80% of animal measured after 1 to 4 hrs by audiogenic seizure test; assay type: functional
[18] = system: Rhesus monkey; assay: Antianxiety activity in po dosed rhesus monkey assessed as antiagressive behavior measured every hour post dosing; assay type: functional; conditions: Macaca mulatta, read-out: MED
[19] = system: Canis familiaris; assay: Antianxiety activity in po dosed dog assessed as ataxia administered as single dose measured up to 24 hrs; assay type: functional; conditions: Canis lupus familiaris, read-out: MED
[20] = system: Rattus norvegicus; assay: Antipsychotic activity in rat assessed as reduction of methamphetamine-induced hyperactivity at 10 mg/kg, po administered prior to methamphetamine challenge relative to vehicle-treated control; assay type: functional; parameters: scale not given: the % may be the effect or the level left
[21] = system: Mus musculus; assay: Antianxiety activity in albino BALB/cJ mouse assessed as reduction in footshock-induced fighting behavior at 5 mg/kg, po after 30 to 90 mins; assay type: functional; parameters: scale not given: the % may be the effect or the level left

Compound	Activity [3] [%]	LD50 [4] [mg/kg]	Activity [8] [%]	inhibition [13]	Activity [16]	further results
Cc1ccc(CCCC(C)c2cc(O)c3c(c2)OC(C)(C)C2=C3CC(C)CC2)cc1 (stereo not given)	16	≥ 1000	66			Activity [1]: 16%; inhibition in vivo at 10 mg/kg [2]: 30%; Activity [5]: 0%; Activity [6]: 10%; Activity [7]: 0%; Activity [9]: 72%; inhibition in vivo at 0.5 mg/kg [10]: 90%; Activity [11]: 26%
CC1CSC2=C1c1c(O)cc(C(C)CCCc3ccc(F)cc3)cc1OC2(C)C (stereo not given)	85	500	78			Activity [12]: 55%; ED50 [13]: 8.4 mg/kg; Activity [6]: 100%; Time [14]: 11 min; Time [15]: 8 min
CCCCCc1cc(O)c2c(c1)OC(C)(C)C1=C2CN(Cc2ccccc2)CC1				inactive	inactive	
CC1CCc2c(c3c(O)cc(CCCCCc4ccc(F)cc4)cc3oc2=O)C1 (stereo not given)				inactive	inactive	
CC(CCc1ccc(F)cc1)C(C)c1cc(O)c2c(c1)OC(C)(C)C1=C2CN(Cc2ccccc2)CC1 (stereo not given)				inactive	inactive	
CC(CCc1ccc(F)cc1)C(C)c1cc(O)c2c3c(c(=O)oc2c1)CCN(Cc1ccccc1)C3 (stereo not given)				inactive	inactive	
CC1CCc2c(c3c(O)cc(C(C)CCc4ccc(F)cc4)cc3oc2=O)C1 (stereo not given)				inactive	inactive	
CC(CCc1ccc(F)cc1)c1cc(O)c2c(c1)OC(C)(C)C1=C2CN(Cc2ccccc2)CC1 (stereo not given)				inactive	inactive	
CC1CCC2=C(C1)c1c(O)cc(C(C)CCCc3ccccc3)cc1OC2(C)C (stereo not given)	36	750	77			Activity [17]: 30 mg/kg; Activity [12]: 46%; ED50 [13]: 17 mg/kg; minimal effective dose [18]: 0.5 mg/kg; Activity [6]: 77%; Time [14]: 28 min; minimal effective dose [19]: 1 mg/kg; Time [15]: 2 min
CC(CCCCc1ccc(F)cc1)c1cc(O)c2c3c(c(=O)oc2c1)CCN(Cc1ccccc1)C3 (stereo not given)				inactive	inactive	
CC1CCC2=C(C1)c1c(O)cc(C(C)C(C)Cc3ccc(F)cc3)cc1OC2(C)C (stereo not given)	66	≥ 1000				Activity [1]: 24%; Activity [20]: 28%; inhibition in vivo at 10 mg/kg [2]: 38%; Activity [5]: 9%; Activity [6]: 4%; Activity [7]: 22%; Activity [9]: 56%; Activity [11]: 21%
CC1CCc2c(c3c(O)cc(C(C)CCCCc4ccc(F)cc4)cc3oc2=O)C1 (stereo not given)				inactive	inactive	
CC(CCCc1ccc(F)cc1)C(C)c1cc(O)c2c3c(c(=O)oc2c1)CCN(Cc1ccccc1)C3 (stereo not given)				inactive	inactive	
C#CCN1CCC2=C(C1)c1c(OC(=O)C(C)CCN3CCOCC3)cc(C(C)CCCc3ccc(F)cc3)cc1OC2(C)C.Cl (stereo not given)	71	≥ 1000	24			ED50 [13]: 7.2 mg/kg; ED50 [16]: 7 mg/kg; Activity [6]: 26%
CC1CCc2c(c3c(O)cc(C(C)CCCN(C)C)cc3oc2=O)C1 (stereo not given)				inactive	inactive	
CCCCCc1cc(O)c2c(c1)OC(C)(C)C1=C2CNCC1				inactive	inactive	
CC1CCc2c(c3c(O)cc(C(C)C(C)CCc4ccncc4)cc3oc2=O)C1 (stereo not given)				inactive	inactive	
C#CCN1CCC2=C(C1)c1c(O)cc(C(C)C(C)CCCc3ccc(F)cc3)cc1OC2(C)C (stereo not given)	46	≥ 1000	0			inhibition in vivo at 10 mg/kg [2]: 35%; inhibition in vivo at 0.5 mg/kg [10]: 0%; Activity [21]: 23%
C#CCN1CCC2=C(C1)c1c(OC(=O)CCCN3CCOCC3)cc(C(C)CCCc3ccc(F)cc3)cc1OC2(C)C.Cl.Cl (stereo not given)	48	≥ 1000	33			ED50 [13]: 9 mg/kg; ED50 [16]: 5 mg/kg; Activity [6]: 0%
CC(CCCCc1ccc(F)cc1)c1cc(O)c2c(c1)OC(C)(C)C1=C2CNCC1 (stereo not given)				inactive	inactive	
CCCCCc1cc(O)c2c3c(c(=O)oc2c1)CCN(Cc1ccccc1)C3				inactive	inactive	
CC1CCC2=C(C1)c1c(O)cc(CCCCCc3ccc(F)cc3)cc1OC2(C)C (stereo not given)	16	≥ 1000	39			Activity [1]: 17%; inhibition in vivo at 10 mg/kg [2]: 41%; Activity [5]: 9%; Activity [7]: 6%; Activity [21]: 36%; Activity [11]: 27%
